Where “and” joins values, the source holds several entries; their conditions need not be identical. Identical values can stand only once. Entries after “also recorded” stand apart in the source; their conditions may differ. Like-named read-outs stand apart in the source and are kept apart here. Marks after values point to notes of the source that are not given here.
Key:
[1] = target: T1, EphrinB2-EphB1 (Homo sapiens, UniProt P54762); assay: Octet 80 sec association/500 sec dissociation, immobilized human EphrinB2-Fc binding to soluble human EphB1-His; conditions: for EphB1 Inhibition Percent, Inhibition of Association ONLY: at 3.2 μM and 80 seconds; for EphB1 Inhibition Percent, Inhibition of Association ONLY / EphB1 Inhibition Percent, Inhibition of Association-Dissociation: immobilized human EphrinB2, 25 nM soluble human EphB1; for EphB1 Inhibition Percent, Inhibition of Association-Dissociation: at 3.2 μM and 580 seconds; for inhibition at 3.2 µM: EphB1, 25 nM EphB1, 3.2 μM compound, A20-I as max control, 0* = less than 0, no inhibition
T1 construct: soluble human EphB1-His, EphB2-His, and EphB4-His ectodomains; commercially available human EphrinB1-Fc (EB1), EphrinB2-Fc (EB2), and EphrinB3-Fc (EB3) ectodomain proteins; purchased
T1 sequence (P54762 18-540 limits assumed): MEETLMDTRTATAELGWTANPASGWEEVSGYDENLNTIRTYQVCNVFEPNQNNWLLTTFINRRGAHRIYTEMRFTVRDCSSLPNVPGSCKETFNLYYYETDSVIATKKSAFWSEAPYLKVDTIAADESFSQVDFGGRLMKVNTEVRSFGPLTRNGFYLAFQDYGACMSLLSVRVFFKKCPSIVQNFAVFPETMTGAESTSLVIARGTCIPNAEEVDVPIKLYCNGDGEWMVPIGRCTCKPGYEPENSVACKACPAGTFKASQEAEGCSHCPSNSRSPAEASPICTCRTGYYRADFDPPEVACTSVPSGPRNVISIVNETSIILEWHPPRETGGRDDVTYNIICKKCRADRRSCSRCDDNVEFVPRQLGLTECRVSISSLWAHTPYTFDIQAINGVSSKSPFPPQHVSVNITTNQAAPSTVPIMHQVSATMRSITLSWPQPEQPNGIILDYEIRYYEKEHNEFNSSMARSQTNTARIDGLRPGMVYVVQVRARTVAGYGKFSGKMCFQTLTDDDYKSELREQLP
Description: (§1) In another experiment, whether certain A20 analogs might have specificity for different Eph receptors was tested. An Octet RED384 system was used to obtain biophysical ON-OFF binding data (association-dissociation) for the three different human EphrinB2-EphB1, EphrinB2-EphB2, and EphrinB2-EphB4 protein-protein interactions and to assess the effect of A20 chemicals on the binding kinetics.
(§2) FIGS. 72A-72C show three example Octet sensorgram response traces for the immobilized human EphrinB2 ectodomain protein binding to soluble forms of the human EphB1, EphB2, and EphB4 ectodomain proteins, in the absence or presence of an A20 chemical (buffer conditions are always PBSTD:PBS with 0.05% Tween-20, 1% DMSO, and +/− indicated chemical). After loading EphrinB2-Fc protein to Octet AHC biosensors, washing, and obtaining stable baseline measurements in the appropriate PBSTD (either with or without indicated chemical), the sensors are placed in its buffer that also contains the indicated soluble EphB protein for the association step (0-80″), and then returned to its buffer for the dissociation step (81″-580″). In each figure (FIGS. 72A-72C), a sensorgram run using 10 μM of the 2×HCl salt form of A20-I is compared to the no compound control run to exemplify the maximum level of reduced response signal typically obtained with a potent A20 chemical.
(§3) Because the response levels during the dissociation step plateau for the EphrinB2-EphB2 and EphrinB2-EphB1 interactions by the first 80″, AUCs were also calculated for run data encompassing the first 160″ of each experiment to account for both the 80″ association data (red asterisks) and the first 80″ of dissociation data (marked by green line and asterisks).
(§4) The selectivity of another A20 analog (a 3×HCL salt form of compound BQPB4) in comparison to previously tested compound, A20-1, was tested as described in Example 27 above.
(§5) Further to the experiments listed above, a series of dose-response experiments were conducted to determine the IC50 of a selected A20 chemical (A20-1) on the kinetics of human EphrinB2 ligand ectodomain protein binding to its cognate human EphB1, EphB2, and EphB4 receptor ectodomain proteins. FIG. 74A-74C are representative sensorgrams showing the effect of 0, 0.1, 0.2, 0.4, 0.8, 1.6, and 3.2 μM, concentrations of the 2×HCl salt of A20-I along with a 10 μM max standard (also A20-1) on three different Ephrin-EphB interactions (e.g., EphB1 in FIG. 74A, EphB2 in FIG. 74B and EphB4 in FIG. 74C). […] Additional IC50 values were determined at specific timepoints, at 75″ into the association step and at 55″ into the dissociation step (135″).
(§6) All absolute and relative IC50 values are provided in the Table 6 below, where absolute are based off the full binding sensorgram traces, and relative are based off of the max control traces.
(§7) In another experiment, the % inhibition for various A20 analog chemicals against the three different EphrinB2-EphB protein interactions was determined. Specifically, the percent inhibition for immobilized human EphrinB2-Fc binding to 25 nM soluble human EphB1-His (FIG. 76A, enlarged in FIG. 76D), EphB2-His (FIG. 76B, enlarged in FIG. 76E), and EphB4-His (FIG. 76C, enlarged in FIG. 76F) with 3511-I, 8009-9255, QTM-Br, A19, A19-NO2, and IM (all at 3.2 μM) was determined.

[2] = target: T2, EphrinB2-EphB4 (Homo sapiens, UniProt P54760); assay: Octet 80 sec association/500 sec dissociation, immobilized human EphrinB2-Fc binding to soluble human EphB4-His; conditions: for EphB4 Inhibition Percent, Inhibition of Association ONLY: at 3.2 μM and 80 seconds; for EphB4 Inhibition Percent, Inhibition of Association ONLY / EphB4 Inhibition Percent, Inhibition of Association-Dissociation: immobilized human EphrinB2, 25 nM soluble human EphB4; for EphB4 Inhibition Percent, Inhibition of Association-Dissociation: at 3.2 μM and 580 seconds; for inhibition at 3.2 µM: EphB4, 25 nM EphB4, 3.2 μM compound, A20-I as max control, 0* = less than 0, no inhibition
T2 construct: soluble human EphB1-His, EphB2-His, and EphB4-His ectodomains; commercially available human EphrinB1-Fc (EB1), EphrinB2-Fc (EB2), and EphrinB3-Fc (EB3) ectodomain proteins; purchased
T2 sequence (P54760 16-539 limits assumed): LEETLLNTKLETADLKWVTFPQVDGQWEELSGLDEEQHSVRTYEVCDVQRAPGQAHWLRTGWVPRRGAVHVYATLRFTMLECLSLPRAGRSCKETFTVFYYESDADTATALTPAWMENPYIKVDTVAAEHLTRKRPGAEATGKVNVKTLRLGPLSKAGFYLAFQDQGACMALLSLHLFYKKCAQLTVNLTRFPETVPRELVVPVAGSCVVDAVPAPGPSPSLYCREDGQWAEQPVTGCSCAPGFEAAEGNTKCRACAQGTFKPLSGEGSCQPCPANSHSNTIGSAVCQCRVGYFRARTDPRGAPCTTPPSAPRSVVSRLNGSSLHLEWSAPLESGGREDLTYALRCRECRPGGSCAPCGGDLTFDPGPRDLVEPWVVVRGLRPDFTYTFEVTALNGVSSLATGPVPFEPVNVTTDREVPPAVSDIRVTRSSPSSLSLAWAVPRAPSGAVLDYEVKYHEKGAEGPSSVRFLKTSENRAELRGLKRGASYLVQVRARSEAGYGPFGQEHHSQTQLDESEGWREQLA
Description: as §1, §2, §3, §4, §5, §6, §7

[3] = target: T3, EphrinB2-EphB2 (Homo sapiens, UniProt P29323); assay: Octet 80 sec association/500 sec dissociation, immobilized human EphrinB2-Fc binding to soluble human EphB2-His; conditions: for EphB2 Inhibition Percent, Inhibition of Association ONLY: at 3.2 μM and 80 seconds; for EphB2 Inhibition Percent, Inhibition of Association ONLY / EphB2 Inhibition Percent, Inhibition of Association-Dissociation: immobilized human EphrinB2, 25 nM soluble human EphB2; for EphB2 Inhibition Percent, Inhibition of Association-Dissociation: at 3.2 μM and 580 seconds; for inhibition at 3.2 µM: EphB2, 25 nM EphB2, 3.2 μM compound, A20-I as max control, 0* = less than 0, no inhibition
T3 construct: soluble human EphB1-His, EphB2-His, and EphB4-His ectodomains; commercially available human EphrinB1-Fc (EB1), EphrinB2-Fc (EB2), and EphrinB3-Fc (EB3) ectodomain proteins; purchased
T3 sequence (P29323 19-543 limits assumed): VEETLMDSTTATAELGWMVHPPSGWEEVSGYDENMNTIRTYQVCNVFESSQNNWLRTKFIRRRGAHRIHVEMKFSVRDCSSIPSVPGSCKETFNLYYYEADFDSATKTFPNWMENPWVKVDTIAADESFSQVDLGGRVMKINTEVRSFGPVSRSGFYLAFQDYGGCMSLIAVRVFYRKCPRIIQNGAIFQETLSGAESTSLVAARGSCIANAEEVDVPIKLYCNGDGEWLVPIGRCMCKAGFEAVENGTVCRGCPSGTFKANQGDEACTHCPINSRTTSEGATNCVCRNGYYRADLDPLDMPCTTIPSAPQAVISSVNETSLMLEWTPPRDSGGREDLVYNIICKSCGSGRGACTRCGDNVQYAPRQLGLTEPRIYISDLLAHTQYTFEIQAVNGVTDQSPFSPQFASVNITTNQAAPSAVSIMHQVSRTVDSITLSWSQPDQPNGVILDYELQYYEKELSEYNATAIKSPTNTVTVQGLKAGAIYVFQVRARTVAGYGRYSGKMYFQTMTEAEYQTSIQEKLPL
Description: as §1, §2, §3, §4, §5, §6, §7

[4] = target: T3, EphrinB2-EphB2; assay: Octet tetramerization inhibition, immobilized human EphrinB2 binding to 50 nM soluble human EphB2
[5] = Absolute AUC/IC50, Table A, EphrinB2-EphB2
[6] = Absolute Association IC50 (300 sec), Table A, EphrinB2-EphB2
[7] = Absolute Dissociation IC50 (450 sec), Table A, EphrinB2-EphB2
[8] = Relative AUC/IC50, Table A, EphrinB2-EphB2, compound 7: association only
[9] = Relative Association IC50 (300 sec), Table A, EphrinB2-EphB2
[10] = Relative Dissociation IC50 (450 sec), Table A, EphrinB2-EphB2
[11] = read-out: % Inhibition: Association + Dissociation (160 sec)
[12] = read-out: % Inhibition: Association ONLY (80 sec)
[13] = tetramerization inhibitor IC50 (relative), association step, surmountable tetramer

EphB1 Inhibition Percent, Inhibition of Association ONLY [1] [%]	EphB4 Inhibition Percent, Inhibition of Association ONLY [2]	EphB2 Inhibition Percent, Inhibition of Association ONLY [3]	IC50 [4, 8] [nM]	Structure (SMILES)	EphB1 Inhibition Percent, Inhibition of Association-Dissociation [1]	EphB4 Inhibition Percent, Inhibition of Association-Dissociation [2]	EphB2 Inhibition Percent, Inhibition of Association-Dissociation [3]	IC50 [4, 5] [nM]	IC50 [4, 6] [nM]	IC50 [4, 7] [nM]	IC50 [4, 9] [nM]	IC50 [4, 10] [nM]	IC50 [4, 13] [nM]	other results
8.1	0*%	0*%	> 1600	Cc1ccc2c(CN3CCN(c4ccc(Br)cc4)CC3)ccc(O)c2n1 [Compound 61, 5-((4-(4-bromophenyl)piperazin-1-ium-1-yl)methyl)-8-hydroxy-2-methylquinolin-1-ium chloride]	11.3%	0*%	0*%	> 1600	> 1600	> 1600	> 1600	> 1600	–	–
22.2	20.2%	5.6%	> 1600	COc1ccc2[nH]cc(C(=O)N3CCN(c4ccc(Br)cc4)CC3)c2c1 [Compound 65, (4-(4-bromophenyl)piperazin-1-yl)(5-methoxy-1H-indol-3-yl)methanone]	28.6%	19.0%	46.4%	> 1600	> 1600	> 1600	> 1600	> 1600	–	–
–	–	–	–	O=S1(=O)CCN(Cc2cc(Br)c(O)c3ncccc23)CC1 [Compound 16, 4-((7-bromo-8-hydroxyquinolin-5-yl)methyl)thiomorpholine 1,1-dioxide]	–	–	–	–	–	–	–	–	~800	inhibition at 3.2 µM [1, 11]: 48%; inhibition at 3.2 µM [1, 12]: 33%; inhibition at 3.2 µM [2, 11]: 37.2%; inhibition at 3.2 µM [2, 12]: 18.1%; inhibition of EphrinB2-EphB interactions ([3]; 3.2 μM, EphB1, EphB2 and EphB4): activity similar to A20-I max control; inhibition at 3.2 µM [3, 11]: 74.5%; inhibition at 3.2 µM [3, 12]: 59.5%

Structure (SMILES)	EphB1 Inhibition Percent, Inhibition of Association ONLY [1] [%]	EphB4 Inhibition Percent, Inhibition of Association ONLY [2]	EphB2 Inhibition Percent, Inhibition of Association ONLY [3]	IC50 [4, 8] [nM]	EphB1 Inhibition Percent, Inhibition of Association-Dissociation [1]	EphB4 Inhibition Percent, Inhibition of Association-Dissociation [2]	EphB2 Inhibition Percent, Inhibition of Association-Dissociation [3]	IC50 [4, 5] [nM]	IC50 [4, 6] [nM]	IC50 [4, 7] [nM]	IC50 [4, 9] [nM]	IC50 [4, 10] [nM]	IC50 [4, 13] [nM]	other results
Oc1c(Br)cc(CN2CCN(Cc3ccc(Br)cc3)CC2)c2cccnc12 [Compound 45, 7-bromo-5-((4-(4-bromobenzyl)piperazin-1-ium-1-yl)methyl)-8-hydroxyquinolin-1-ium chloride]	37.3	4.9%	62.1%	–	49.9%	28.3%	77.1%	760	790	720	560	590	–	–
O=C(c1ccc(O)c2ncccc12)N1CCOCC1 [Compound 53, (8-hydroxyquinolin-5-yl)(morpholino)methanone]	–	–	–	1860	38.7% and 26.3%	16.8% and 12.5%	65.3% and 40.6%	2820	3020	2340	1950	1620	~1600	disruption of unsurmountable tetramer ([4]; 0.8-3.2 μM, listed as A19-L): slight ability to disrupt the unsurmountable tetramer; also recorded: able to inhibit a small amount of the EphrinB2-EphB2 unsurmountable tetramer
